Patent US10888588B2, “Directed cardiomyocyte differentiation and ventricular specification of stem cells” (ICAHN SCHOOL OF MEDICINE AT MOUNT SINAI, priority 2013, dated 2021)

What was measured:
hESCs = experiment: Embryoid body formation from dissociated hESCs; format: cell-based, human; conditions: EB formation in suspension culture
Text: (§1) As detailed in the following examples, cardiac differentiation was initiated by formation of embryoid bodies (EBs) in suspension culture from hESCs as exemplary stem cells, maintained in feeder-free, serum-free culture. […] In the first phase of the differentiation process (Stage 1; days 2-4.5), the cells were differentiated into primitive streak-mesendoderm and subsequently to cardiac mesoderm by the combinatorial activation of the BMP and Nodal signaling pathways. In the second phase (Stage 2; days 4.5-8) the inhibition of the Wnt/β-catenin pathway by the small molecule IWR-1^29 enhanced the differentiation of the cardiac progenitors to the ventricular cardiomyocyte lineage.

HES2-VCMs = conditions: H2O2 100 μM, 30 minutes, 37° C.; ratio before stress 1.146
Method: Mitochondrial membrane potential in HES2-VCMs was measured with the potential-sensitive dye JC-1 (Invitrogen). LV-MLC2v-Tdtomato-T2A-Zeo transduced and Zeo-selected HES2-VCMs (30- to 50-day-old) were incubated at 37° C. with 0.5 μM JC-1 in serum free DMEM medium for 15 minutes. To simulate metabolic oxidative stress, hES2-VCMs were treated with hydrogen peroxide (H2O2; 100 μM) for 30 minutes at 37° C., after which JC-1 orange and green fluorescence intensities were measured for mitochondrial membrane potential with a LSM Carl Zeiss 510 Meta microscope.

Wnt/β-catenin pathway = experiment: Directed differentiation to ventricular cardiomyocytes with Wnt inhibition; format: cell-based, human
Text: as §1
For directed cell differentiation, undifferentiated hPSCs were digested into smaller clusters using Dispase (STEMCELL Technologies; 1 mg/ml for 8 minutes at 37° C.) and seeded onto Matrigel™-coated plates at 3×10^4 cells/ml in mTeSR™ 1 medium for 4 days until there was about 80-90% confluence on D0. To initiate cardiac differentiation, hPSCs were digested into single cell suspensions using Accutase (Invitrogen) and cultured in mTeSR™ 1 medium with Matrigel™ (40 μg/ml) with BMP-4 (1 ng/ml, Invitrogen) and Rho kinase inhibitor (ROCK) Inhibitor (10 μM; R&D) under a hypoxic condition with 5% O2. […] Cardiac mesodermal cells developed into functional contracting clusters could be detected as early as day 8. […]

hESC-VCMs = experiment: Patch-clamp AP recording and confocal Ca2+ imaging of hESC-VCMs; format: cell-based, human
Method: The electrophysiological experiments disclosed in the Examples were performed using the whole-cell patch-clamp technique as previously described.^65-67 To profile chamber-specific subtypes of the hPSC-CMs, action potentials of the myocytes were randomly probed at 37° C. with the patch-clamp technique using an EPC-10 amplifier and Pulse software (Heka Elektronik, Germany), with the current-clamp mode (0.1-0.5 nA for 1-5 ms) under the whole-cell configuration applied. The hPSC-CMs were categorized into nodal-, atrial- or ventricular-like, as previously described.^62,65,66 Voltage-clamp recordings of ionic currents were performed using an automated parallel patch-clamp system (PatchXpress 7000A, Molecular Devices) using standard electrophysiological and pharmacological protocols for isolating the ionic component of interest.
Intracellular Ca^2+ ([Ca^2+]i) transients were imaged by a spinning disc laser confocal microscope (PerkinElmer) on hPSC-CMs loaded with 1.5 μM X-Rhod-1 (Invitrogen) as previously described^66. After dye loading, experiments were performed at 37° C. in Tyrode's solution containing: 140 mM NaCl, 5 mM KCl, 1 mM MgCl2, 1.25 mM CaCl2, 10 mM HEPES and 10 mM D-glucose at pH 7.4. […] The amplitudes of E[Ca^2+]i are presented as the background corrected pseudo ratio (ΔF/F)=(F−Fbase)/(Fbase−B) where Fbase and F is the measured fluorescence intensity before and after stimulation, respectively, and B is the average background signal from areas adjacent to the targeted cell. The transients rise (Vupstroke) and the transients decay (Vdecay) were subsequently calculated and analyzed.
Initially, electrophysiological profiles were obtained and analyzed from patch-clamp recordings and Ca^2+-imaging performed on 30- to 50-day-old single cells isolated from cardiogenic EBs.

hPSC = conditions: cited from earlier work

SMILES: Cc1ccc2c(c1)C(=O)C1(O)CCN(c3ccccc3)C1=N2 (stereo not shown) [blebbistatin]
- EB formation efficiency (hESCs): significantly increased
- dissociation-induced apoptosis of hESCs (hESCs): inhibited

SMILES: OO [H2O2, hydrogen peroxide]
- JC-1 orange/green intensity ratio (HES2-VCMs): 0.410

SMILES: O=C(Nc1cccc2cccnc12)c1ccc(N2C(=O)[C@@H]3[C@H](C2=O)[C@@H]2C=C[C@H]3C2)cc1 [IWR-1]
- differentiation of cardiac progenitors to the ventricular cardiomyocyte lineage (Wnt/β-catenin pathway; Stage 2, days 4.5-8): enhanced
- heterogeneity of the hESC-derived cardiomyocytes (Wnt/β-catenin pathway; timely inhibition of Wnt/β-catenin pathway): reduced

SMILES: CC(C)NCC(O)c1ccc(O)c(O)c1 (stereo not shown) [isoproterenol]
- chronotropic response (spontaneous AP and Ca2+ transient firings) (hESC-VCMs; 30- to 50-day-old single cells, β-adrenergic stimulation): positive chronotropic response
- Ca2+ transient amplitude (ionotropic response) (hESC-VCMs; β-adrenergic stimulation, p>0.05): remained unchanged

SMILES: COc1ccc(CCC(=O)Nc2nc3ccc(Cl)cc3s2)cc1OC [KY02111]
- hPSC-CM per hPSC (hPSC; about 4.2×10^6 hPSC-CM from about 6×10^6 seeded per well): 0.7 hPSC-CM per hPSC
- yield of CM from hPSC differentiation (hPSC; serum- and xeno-free, four hiPSC lines, by inhibiting WNT signaling): up to 98%

SMILES: Cn1c(=O)c2c(ncn2C)n(C)c1=O [caffeine]
- caffeine-induced Ca2+ flux (functional sarcoplasmic reticulum) (hESC-VCMs): observed
